Data published in US8598120B2 (Amylin Pharmaceuticals, LLC, priority 2004, dated 2013).
Square brackets hold non-standard residues; d marks the D form. Ends that are not written are not given here. * marks the point of attachment. Pentanoyl(4-Me) = CC(C)CCC(=O)*; Orn = NCCC[C@H](N)C(=O)O; For = O=C*

Test: Food intake assay in overnight fasted mice
Assay type: in vivo
Details: 25 nmol/kg intraperitoneal
Description: Female NIH/Swiss mice (8-14 weeks old) were group housed with a 12:12 hour light:dark cycle. Water and a standard pelleted mouse chow diet are available ad libitum, except as noted. Animals are fasted starting at approximately 1500 hrs, 1 day prior to experiment.
The effects of treatment on food intake are expressed as % change relative to control.

## isocaproyl-STAVLGRLSQELHRLQTYPRTNTGSNTY ({Pentanoyl(4-Me)}-STAVLGRLSQELHRLQTYPRTNTGSNTY-NH2; SMILES CC(C)CCC(=O)N[C@@H](CO)C(=O)N[C@H](C(=O)N[C@@H](C)C(=O)N[C@H](C(=O)N[C@@H](CC(C)C)C(=O)NCC(=O)N[C@@H](CCCNC(=N)N)C(=O)N[C@@H](CC(C)C)C(=O)N[C@@H](CO)C(=O)N[C@@H](CCC(N)=O)C(=O)N[C@@H](CCC(=O)O)C(=O)N[C@@H](CC(C)C)C(=O)N[C@@H](Cc1c[nH]cn1)C(=O)N[C@@H](CCCNC(=N)N)C(=O)N[C@@H](CC(C)C)C(=O)N[C@@H](CCC(N)=O)C(=O)N[C@H](C(=O)N[C@@H](Cc1ccc(O)cc1)C(=O)N1CCC[C@H]1C(=O)N[C@@H](CCCNC(=N)N)C(=O)N[C@H](C(=O)N[C@@H](CC(N)=O)C(=O)N[C@H](C(=O)NCC(=O)N[C@@H](CO)C(=O)N[C@@H](CC(N)=O)C(=O)N[C@H](C(=O)N[C@@H](Cc1ccc(O)cc1)C(N)=O)[C@@H](C)O)[C@@H](C)O)[C@@H](C)O)[C@@H](C)O)C(C)C)[C@@H](C)O) [Compound 20]
  cumulative food intake compared to vehicle, 30 min: −9%
  cumulative food intake compared to vehicle, 60 min: −21%
  cumulative food intake compared to vehicle, 120 min: −30%
  cumulative food intake compared to vehicle, 180 min: −31%

## KCNTASCVLGRLSQELHRLQTYPRTNTGSNTY [Compound 36]
  cumulative food intake compared to vehicle, 30 min: −34%
  cumulative food intake compared to vehicle, 60 min: −22%
  cumulative food intake compared to vehicle, 120 min: −24%
  cumulative food intake compared to vehicle, 180 min: −25%

## KCNTATCVLGKLSQELHKLQTYPRTNTGSNTY [Compound 49]
  cumulative food intake compared to vehicle, 30 min: −33%
  cumulative food intake compared to vehicle, 60 min: −26%
  cumulative food intake compared to vehicle, 120 min: −25%

## KCNTATCMLGRYTQDFHRLQTYPRTNTGSNTY [Compound 66]
  cumulative food intake compared to vehicle, 30 min: −13%
  cumulative food intake compared to vehicle, 60 min: −15%
  cumulative food intake compared to vehicle, 120 min: −28%

## CSNLSACVLGRLSQELHRLQTYPRTNTGSNTY [Compound 23]
  cumulative food intake compared to vehicle, 30 min: 8%
  cumulative food intake compared to vehicle, 60 min: 0%
  cumulative food intake compared to vehicle, 120 min: −19%
  cumulative food intake compared to vehicle, 180 min: −12%

## KCDTATCVTHRLAGLLSRSQTYPRTNTGSNTY [Compound 94]
  cumulative food intake compared to vehicle, 30 min: −62%
  cumulative food intake compared to vehicle, 60 min: −42%
  cumulative food intake compared to vehicle, 120 min: −36%
  cumulative food intake compared to vehicle, 180 min: −31%

## KCNTATCVLGRLADFLHRFQTFPRTNTGSGTP [Compound 109]
  cumulative food intake compared to vehicle, 30 min: −61%
  cumulative food intake compared to vehicle, 60 min: −54%
  cumulative food intake compared to vehicle, 120 min: −43%

## KCNTSTCATQRLANELVRLQTYPRTNVGSNTY [Compound 53]
  cumulative food intake compared to vehicle, 30 min: −92%
  cumulative food intake compared to vehicle, 60 min: −89%
  cumulative food intake compared to vehicle, 120 min: −36%

## KCNTATCVLGRLTEFLHRLQTYPRTNTGSNTY [Compound 103]
  cumulative food intake compared to vehicle, 30 min: −50%
  cumulative food intake compared to vehicle, 60 min: −44%
  cumulative food intake compared to vehicle, 120 min: −30%

## KCNTATCVLGRLFDFLHRLQTYPRTNTGSNTY [Compound 112]
  cumulative food intake compared to vehicle, 30 min: −62%
  cumulative food intake compared to vehicle, 60 min: −65%
  cumulative food intake compared to vehicle, 120 min: −50%

## KCNTATCVLGRLSQELHRLQTLPRTNTGSNTY [Compound 11]
  cumulative food intake compared to vehicle, 30 min: −52%
  cumulative food intake compared to vehicle, 60 min: −47%
  cumulative food intake compared to vehicle, 120 min: −38%
  cumulative food intake compared to vehicle, 180 min: −35%

## KCNTATCVTHRLSQELHRLQTYPRTNTGSNTY [Compound 87]
  cumulative food intake compared to vehicle, 30 min: −43%
  cumulative food intake compared to vehicle, 60 min: −32%
  cumulative food intake compared to vehicle, 120 min: −21%

## CSNASTCVLGRLSQELHRLQTYPRTNTGSNTY [Compound 21]
  cumulative food intake compared to vehicle, 30 min: 9%
  cumulative food intake compared to vehicle, 60 min: −5%
  cumulative food intake compared to vehicle, 120 min: −18%
  cumulative food intake compared to vehicle, 180 min: −18%

## KCNTATCVLGRLAEFLHRLQTYPRTNTGSNTY [Compound 104]
  cumulative food intake compared to vehicle, 30 min: −69%
  cumulative food intake compared to vehicle, 60 min: −67%
  cumulative food intake compared to vehicle, 120 min: −54%

## KCNTSTCVLGRLSQELHRLQTYPRTNTGSNTY [Compound 50]
  cumulative food intake compared to vehicle, 30 min: −70%
  cumulative food intake compared to vehicle, 60 min: −62%
  cumulative food intake compared to vehicle, 120 min: −48%

## KCNTATCVLGRLSQELHRLQTYPRTNTGSGTP [Compound 25]
  cumulative food intake compared to vehicle, 30 min: −29%
  cumulative food intake compared to vehicle, 60 min: −34%
  cumulative food intake compared to vehicle, 120 min: −45%

## KCNTATCATQRLSQELHRLQTYPRTNTGSNTY [Compound 51]
  cumulative food intake compared to vehicle, 30 min: −44%
  cumulative food intake compared to vehicle, 60 min: −39%
  cumulative food intake compared to vehicle, 120 min: −35%

## KCDTATCVLGRLSQELHRLQTYPRTNTGSNTY [Compound 111]
  cumulative food intake compared to vehicle, 30 min: −39%
  cumulative food intake compared to vehicle, 60 min: −37%
  cumulative food intake compared to vehicle, 120 min: −32%

## KCNTATCVLGRLSQELH[Orn]LQTYPRTNTGSNTY (cysteine pairing not given here) [Compound 77]
  cumulative food intake compared to vehicle, 30 min: −46%
  cumulative food intake compared to vehicle, 60 min: −43%
  cumulative food intake compared to vehicle, 120 min: −44%

## KCNTATCATQRLSQELHRLQTYPRTNVGSNTY [Compound 52]
  cumulative food intake compared to vehicle, 30 min: −29%
  cumulative food intake compared to vehicle, 60 min: −24%
  cumulative food intake compared to vehicle, 120 min: −23%

## CANLSTCVLGRLSQELHRLQTYPRTNTGSNTY [Compound 19]
  cumulative food intake compared to vehicle, 30 min: −25%
  cumulative food intake compared to vehicle, 60 min: −25%
  cumulative food intake compared to vehicle, 120 min: −35%
  cumulative food intake compared to vehicle, 180 min: −31%

## KCNTATCVLG(homoK)LSQELH(homoK)LQTYPRTNTGSNTY [Compound 63]
  cumulative food intake compared to vehicle, 30 min: −19%
  cumulative food intake compared to vehicle, 60 min: −22%
  cumulative food intake compared to vehicle, 120 min: −28%

## KCNTATCVLG[Orn]LSQELH[Orn]LQTYPRTNTGSNTY (cysteine pairing not given here) [Compound 61]
  cumulative food intake compared to vehicle, 30 min: −23%
  cumulative food intake compared to vehicle, 60 min: −27%
  cumulative food intake compared to vehicle, 120 min: −32%

## KCNTATCVLGRLAQFLHRLQTYPRTNTGSNTY [Compound 106]
  cumulative food intake compared to vehicle, 30 min: −58%
  cumulative food intake compared to vehicle, 60 min: −54%
  cumulative food intake compared to vehicle, 120 min: −39%

## SCNTATCVLGRLADFLHRLQTYPRTNTGSNTY [Compound 97]
  cumulative food intake compared to vehicle, 30 min: −78%
  cumulative food intake compared to vehicle, 60 min: −76%
  cumulative food intake compared to vehicle, 120 min: −60%
  cumulative food intake compared to vehicle, 180 min: −40%

## KCNTATCVLGRLSQELHRLQTVPRTNTGSNTY [Compound 100]
  cumulative food intake compared to vehicle, 30 min: −60%
  cumulative food intake compared to vehicle, 60 min: −52%
  cumulative food intake compared to vehicle, 120 min: −41%

## KCNTATCVLGRLSQELHRLQTMPRTNTGSNTY [Compound 99]
  cumulative food intake compared to vehicle, 30 min: −57%
  cumulative food intake compared to vehicle, 60 min: −55%
  cumulative food intake compared to vehicle, 120 min: −50%

## Isocaproyl-STAVLG[K(For)]LSQELH[K(For)]LQTYPRTNTGSGTP ({Pentanoyl(4-Me)}-STAVLGK(For)LSQELHK(For)LQTYPRTNTGSGTP-NH2; SMILES CC(C)CCC(=O)N[C@@H](CO)C(=O)N[C@H](C(=O)N[C@@H](C)C(=O)N[C@H](C(=O)N[C@@H](CC(C)C)C(=O)NCC(=O)N[C@@H](CCCCNC=O)C(=O)N[C@@H](CC(C)C)C(=O)N[C@@H](CO)C(=O)N[C@@H](CCC(N)=O)C(=O)N[C@@H](CCC(=O)O)C(=O)N[C@@H](CC(C)C)C(=O)N[C@@H](Cc1c[nH]cn1)C(=O)N[C@@H](CCCCNC=O)C(=O)N[C@@H](CC(C)C)C(=O)N[C@@H](CCC(N)=O)C(=O)N[C@H](C(=O)N[C@@H](Cc1ccc(O)cc1)C(=O)N1CCC[C@H]1C(=O)N[C@@H](CCCNC(=N)N)C(=O)N[C@H](C(=O)N[C@@H](CC(N)=O)C(=O)N[C@H](C(=O)NCC(=O)N[C@@H](CO)C(=O)NCC(=O)N[C@H](C(=O)N1CCC[C@H]1C(N)=O)[C@@H](C)O)[C@@H](C)O)[C@@H](C)O)[C@@H](C)O)C(C)C)[C@@H](C)O) [Compound 30]
  cumulative food intake compared to vehicle, 30 min: −1%
  cumulative food intake compared to vehicle, 60 min: −2%
  cumulative food intake compared to vehicle, 120 min: −19%

## KCNTATCVLGRLADFLHRFQTFPRTNTGSNTY [Compound 107]
  cumulative food intake compared to vehicle, 30 min: −84%
  cumulative food intake compared to vehicle, 60 min: −78%
  cumulative food intake compared to vehicle, 120 min: −47%

## KCNTATCVLGRLAAALHRLQTYPRTNTGSNTY [Compound 113]
  cumulative food intake compared to vehicle, 30 min: −79%
  cumulative food intake compared to vehicle, 60 min: −86%
  cumulative food intake compared to vehicle, 120 min: −55%

## KCNTATCVLGRLSQELHRLQTLLQTYPRTNTGSNTY [Compound 48]
  cumulative food intake compared to vehicle, 30 min: −54%
  cumulative food intake compared to vehicle, 60 min: −51%
  cumulative food intake compared to vehicle, 120 min: −36%

## KCNTATCLLQQLQKLLQKLKQYPRTNTGSNTY [Compound 35]
  cumulative food intake compared to vehicle, 30 min: −20%
  cumulative food intake compared to vehicle, 60 min: −16%
  cumulative food intake compared to vehicle, 120 min: −18%
